What was measured:
Type in all cases: cell-based
[1] = tested on: Escherichia coli; experiment: MIC by NCCLS broth microdilution, 1100 Japanese clinical isolates 1997-1998; details: for MIC50 / MIC90: Escherichia coli
[2] = tested on: Streptococcus pyogenes; experiment: as above; details: Streptococcus pyogenes (n=51)
[3] = tested on: Providencia rettgeri; experiment: as above; details: Providencia rettgeri (n=12)
[4] = tested on: Enterococcus faecium; experiment: as above; details: for MIC: Enterococcus faecium
[5] = tested on: Haemophilus influenzae; experiment: MIC by two-fold serial agar dilution, Sensitivity Disk agar-N (Kitasato isolates); details: Haemophilus influenzae (24)
[6] = tested on: Citrobacter freundii; experiment: MIC by NCCLS broth microdilution, 1100 Japanese clinical isolates 1997-1998; details: Citrobacter freundii (n=39)
[7] = tested on: Moraxella catarrhalis; experiment: MIC by two-fold serial agar dilution, Sensitivity Disk agar-N (Kitasato isolates); details: Moraxella catarrhalis (22)
[8] = tested on: Streptococcus pneumoniae; experiment: MIC by NCCLS reference broth microdilution, 450 respiratory tract pathogens; details: Streptococcus pneumoniae
[9] = tested on: Klebsiella pneumoniae; experiment: as above; details: for MIC50 / MIC90: Klebsiella pneumoniae
[10] = tested on: Klebsiella oxytoca; experiment: MIC by NCCLS broth microdilution, 1100 Japanese clinical isolates 1997-1998; details: Klebsiella oxytoca (n=40)
[11] = tested on: Gram positive anaerobic and facultative anaerobic pathogens; experiment: microbe, parasite or virus in culture
[12] = MIC by agar dilution, Brucella HK agar, 491 anaerobic clinical isolates; details: clinical isolates of Bacteroides spp., Prevotella bivia and other Prevotella spp.
[13] = tested on: Staphylococcus aureus; experiment: MIC by NCCLS reference broth microdilution, 450 respiratory tract pathogens
[14] = Escherichia coli ciprofloxacin resistant (n=5)
[15] = Escherichia coli ciprofloxacin susceptible (n=37)
[16] = Streptococcus pneumoniae (n = 100)
[17] = erythromycin resistant M phenotype (n = 16)
[18] = erythromycin resistant MLSB phenotype (n = 16)
[19] = penicillin intermediate (n = 16)
[20] = penicillin susceptible (n = 20)
[21] = extended spectrum β-lactamase negative (n = 30)
[22] = extended spectrum β-lactamase positive (n = 20)
[23] = β-lactamase positive and erythromycin resistant (n = 10)

C[C@@H]1CN(c2c(F)c(N)c3c(=O)c(C(=O)O)cn(C4CC4)c3c2F)C[C@H](C)N1 [Sparfloxacin, sparfloxacin]
0.5 to 128 µg/mL: MIC Range ([4]; Enterococcus faecium (n=39))
0.125 µg/mL: MIC ([11]; Clostridium perfringens, ATCC13124) | MIC ([11]; Clostridium septicum, ATCC12464) | MIC ([11]; Finegoldia magna, ATCC29328) | MIC ([11]; Lacticaseibacillus casei, JCM1134)
0.06 µg/mL: MIC50 ([9]; Klebsiella pneumoniae (n = 50)) | MIC ([11]; Peptoniphilus indolicus)
4 µg/mL: MIC ([11]; Schaalia odontolytica) | MIC ([11]; Thomasclavelia ramosa, ATCC25582)
0.12 to 1 µg/mL: MIC [8, 16] | MIC ([13]; β-lactamase positive (n = 20))
0.03 to 0.5 µg/mL: MIC Range [9, 22]
≤0.0075 to 1 µg/mL: MIC Range ([9]; Klebsiella pneumoniae (n = 50))
16 µg/mL: MIC90 [3]
128 µg/mL: MIC90 ([1]; Escherichia coli ciprofloxacin resistant (n=5), values marked *: MIC80 value)
0.016 to 4 µg/mL: MIC Range [6]
0.12 to 0.5 µg/mL: MIC [8, 18] | MIC ([8]; multi-drug resistant (n = 16)) | MIC [8, 20]
0.5 to 1 µg/mL: MIC [8, 19]
0.12 µg/mL: MIC90 [9, 21]
8 to 128 µg/mL: MIC Range [1, 14]
0.032 µg/mL: MIC90 [1, 15]
0.25 µg/mL: MIC50 ([3]; read-out: MIC50) | MIC50 ([6]; read-out: MIC50) | MIC [8, 17] | MIC50 [8, 17] | MIC90 [8, 17] | MIC50 [8, 18] | MIC90 [8, 18] | MIC50 [8, 20] | MIC90 [8, 20] | MIC ([11]; Cutibacterium acnes, ATCC11828) | MIC ([11]; Gemella morbillorum, ATCC27824) | MIC ([11]; Peptoniphilus asaccharolyticus) | MIC ([11]; Staphylococcus saccharolyticus, ATCC14953) | MIC50 [13, 23]
0.031 µg/mL: MIC90 [5] | MIC90 [7]
0.016 to 0.031 µg/mL: MIC Range [7]
≤0.008 to 0.25 µg/mL: MIC Range [1, 15]
64 µg/mL: MIC90 ([4]; Enterococcus faecium (n=39)) | MIC ([4]; Enterococcus faecium (vanA) vancomycin resistant, strain TMS3) | MIC ([4]; Enterococcus faecium (vanA) vancomycin resistant, strain TMS4) | MIC ([4]; Enterococcus laecium (van B) vancomycin resistant, strain TMS6)
4 to 32 µg/mL: MIC90 [12]
≤0.0075 to 0.25 µg/mL: MIC Range [9, 21]
0.125 to 16 µg/mL: MIC Range [3]
0.063 µg/mL: MIC50 [10]
8 µg/mL: MIC90 [10] | MIC ([11]; Clostridioides difficile) | MIC ([11]; Lactiplantibacillus plantarum, JCM1149)
0.25 to 1 µg/mL: MIC Range [2] | MIC ([8]; penicillin resistant (n = 18)) | MIC [13, 23]
≤0.004 to 0.063 µg/mL: MIC Range [5]
1 µg/mL: MIC90 [2] | MIC90 ([8]; penicillin resistant (n = 18))
0.016 µg/mL: MIC50 [1, 15] | MIC50 [5] | MIC50 [7]
0.06 to 1 µg/mL: MIC ([13]; Staphylococcus aureus (n = 50)) | MIC ([13]; β-lactamase negative (n = 20))
32 µg/mL: MIC50 [1, 14] | MIC50 ([4]; Enterococcus faecium (n=39)) | MIC ([4]; Enterococcus faecium (vanA) vancomycin resistant, strain TMS1) | MIC ([4]; Enterococcus laecium (van B) vancomycin resistant, strain TMS7) | MIC ([11]; Lactobacillus acidophilus, JCM1132)
0.016 to 32 µg/mL: MIC Range [10]
2 µg/mL: MIC ([4]; Enterococcus faecium (vanA) vancomycin resistant, strain TMS5) | MIC90 [6] | MIC ([11]; Bifidobacterium bifidum, JCM1255) | MIC ([11]; Bifidobacterium breve, ATCC15700) | MIC ([11]; Bifidobacterium longum, ATCC15707) | MIC ([11]; Bifidobacterium pseudolongum, ATCC25526) | MIC ([11]; Levilactobacillus brevis, JCM1059) | MIC ([11]; Limosilactobacillus reuteri, JCM1112) | MIC ([11]; Limosilactobacillus reuteri, JCM1173) | MIC ([11]; Paraclostridium sordellii, ATCC9714)
0.03 µg/mL: MIC50 [9, 21]
0.5 µg/mL: MIC50 ([2]; read-out: MIC50) | MIC ([4]; Enterococcus faecium (vanA) vancomycin resistant, strain TMS2) | MIC50 [8, 16] | MIC90 [8, 16] | MIC50 ([8]; multi-drug resistant (n = 16)) | MIC90 ([8]; multi-drug resistant (n = 16)) | MIC50 [8, 19] | MIC90 [8, 19] | MIC50 ([8]; penicillin resistant (n = 18)) | MIC90 ([9]; Klebsiella pneumoniae (n = 50)) | MIC50 [9, 22] | MIC90 [9, 22] | MIC ([11]; Bifidobacterium adolescentis, ATCC15703) | MIC ([11]; Eggerthella lenta, ATCC25559) | MIC ([11]; Ligilactobacillus salivarius, JCM1231) | MIC ([11]; Parvimonas micra) | MIC ([11]; Peptostreptococcus anaerobius, ATCC27337) | MIC ([11]; Streptococcus constellatus, ATCC27823) | MIC ([11]; Streptococcus intermedius, ATCC27335) | MIC50 ([13]; Staphylococcus aureus (n = 50)) | MIC90 ([13]; Staphylococcus aureus (n = 50)) | MIC50 ([13]; β-lactamase negative (n = 20)) | MIC90 ([13]; β-lactamase negative (n = 20)) | MIC50 ([13]; β-lactamase positive (n = 20)) | MIC90 ([13]; β-lactamase positive (n = 20)) | MIC90 [13, 23]

Reference: patent EP1561465A2, “Methods of use of fluoroquinolone compounds against bacteria” (LG Life Sciences, Ltd., priority 1999, dated 2001)
